Patent US20210235699A1, “Adjuvant Compositions Comprising a Tetramethylguanidine and a 4-Isothiazolin-3-One” (Lonza, LLC, priority 2018, published 2021)
Marks after values point to notes of the source that are not given here.

Tests used:
[1] = tested on: combined bacterial test inoculum: Acinetobacter calcoaceticus, Escherichia coli, Pseudomonas aeruginosa, Enterobacter cloacae; assay: Bacterial challenge test (ASTM D2574-97, modified) in standard water based interior paint; assay type: cell-based; parameters: key to Streak plate rank, 1st inoculation 24 h / Streak plate rank, 1st inoculation 72 h / Streak plate rank, 2nd inoculation 72 h / Streak plate rank, 3rd inoculation 24 h: 0 = no growth; 1 = 1-5 Colony Forming Unit (cfu); 2 = 6-15 cfu; 3 = 16-30 cfu; 4 = 31-45 cfu; 5 = greater than 45 cfu; 5c = Confluent Growth; conditions: for Dilution plate count, 3rd inoculation 72 h / Streak plate rank, 3rd inoculation 24 h: inoculum 2.50%; for Streak plate rank, 2nd inoculation 72 h: inoculum 5%; for Streak plate rank, 1st inoculation 24 h / Streak plate rank, 1st inoculation 72 h: inoculum 10%
Experimental: (§1) The following bacterial and fungal challenge tests were performed to ascertain whether low concentrations of 4-isothiazolin-3-one biocidal active compounds, pyrithione, coumarin or guanidine adjuvant are sufficient to prevent microbial contamination of final products when deliberately inoculated with spoilage microbes.
(§2) The tests were performed according to ASTM standard D2574-97 (Standard Test Method for Resistance of Emulsion Paints in the Container to Attack by Microorganisms, ASTM International, West Conshohocken, Pa.), with higher inoculation volumes and frequency. A standard water based interior paint was used as the test substrate. Sample sizes of 20 g test substrate were used and the test samples were prepared in a sterile 30 mL square Nalgene bottle.
The bacteria were grown on pH 5, 7, or 9 Trypticase Soy Agar (TSA) lawns. The bacteria were grown individually on TSA and harvested by using sterile buffered water. The bacterial lawns were washed off with 30 mL of sterile water and an equal volume of each individual cell suspension was withdrawn from each serum bottle to make a combined cell suspension. Combined bacterial suspension were about 10^7 cfu/mL, which provides about 10^6 cfu/mL in the sample.
(§3) The following microorganisms were used for inoculation of the tested samples:
(§4) For the bacterial challenge testing, each sample was inoculated with a combined bacterial test inoculum volume equivalent to 10% of the total initial sample volume for the initial inoculation, 5% of the total initial sample volume for the second inoculation and 2.5% of the total initial sample volume for the third inoculation. Inoculum volumes for the fungal challenge tests were 2%, 1% and 0.5% of the total initial sample volume, respectively. Samples were inoculated every 96 h.
(§5) Concentrations of biocidal active compounds and adjuvants refer to the final concentration in the test samples prior to the first inoculation.
(§6) The efficacy of the added agent in each sample was monitored by means of a streak plate test after 24 hours (all inoculations) and 72 hours of inoculation (first and second inoculation). At 72 hours of the third inoculation performed, a dilution plate count was performed in order to obtain a quantitative measurement of contamination (cfu/mL). A count of less than 10 colony forming units per mL ([…]) is considered to show no measurable contamination. For the streak plate tests, bacterial samples were streaked on Tryptic Soy Agar (TSA) and incubated for 48 hours at 30° C. before reading. Fungal samples were streaked on Potato Dextrose Agar (PDA) and incubated for 5 days at 25° C. before reading.
(§7) The streak plates were ranked from 0-5c according to the degree of microbial growth:
(§8) The challenge tests were performed as described above.

[2] = tested on: fungal test inoculum: Aspergillus niger, Penicillium funiculosum, Candida albicans; assay: Fungal challenge test (ASTM D2574-97, modified) in standard water based interior paint; assay type: cell-based; parameters: key to Streak plate rank, 2nd inoculation 72 h / Streak plate rank, 1st inoculation 72 h / Streak plate rank, 1st inoculation 24 h / Streak plate rank, 2nd inoculation 24 h / Streak plate rank, 3rd inoculation 24 h: 0 = no growth; 1 = 1-5 Colony Forming Unit (cfu); 2 = 6-15 cfu; 3 = 16-30 cfu; 4 = 31-45 cfu; 5 = greater than 45 cfu; 5c = Confluent Growth; conditions: for Dilution plate count, 3rd inoculation 72 h / Streak plate rank, 3rd inoculation 24 h: inoculum 0.50%; for Streak plate rank, 2nd inoculation 72 h: inoculum 1%
Experimental: as §1, §2
Fungal lawns were grown on Potato Dextrose Agar (PDA) or Sabouraud Dextrose Agar (SAB). Individual fungal spore suspensions were harvested by adding 10 mL of sterile 0.05% Triton X to fungal lawns. The lawns were then gently agitated by rubbing a sterile swab on the lawn, being careful not to puncture the agar. The liquid was then aseptically transferred to a sterile bottle containing sterile glass beads. The top of the bottle was closed and the bottle shaken vigorously to break up any chunks in the suspension. The shaken spore suspension was decanted through sterile fibers into another sterile bottle. The decanted spore suspension was counted using a hemocytometer. Once the spore counts were determined, each suspension was diluted in order to obtain 10^6 spore/mL. Each diluted fungal suspension was poured into a sterile container.
as §3
as §4, with “Inoculum volumes for the fungal challenge tests were 2%, 1% and 0.5% of the total initial sample volume, respectively.” left out
as §5, §6, §7, §8

## CCCCn1sc2ccccc2c1=O [BBIT, N-(n-butyl)-1,2-benzisothiazolin-3-one]
[1]; 25 ppm
  Dilution plate count, 3rd inoculation 72 h: 8.3 × 10^6 cfu/mL
  Streak plate rank, 3rd inoculation 24 h: 5c
  Streak plate rank, 2nd inoculation 72 h: 5c
  Streak plate rank, 1st inoculation 24 h: 5c
  Streak plate rank, 1st inoculation 72 h: 5c
[1]; 50 ppm
  Dilution plate count, 3rd inoculation 72 h: 6.0 × 10^6 cfu/mL
  Streak plate rank, 3rd inoculation 24 h: 5c
  Streak plate rank, 2nd inoculation 72 h: 5c
  Streak plate rank, 1st inoculation 24 h: 5c
  Streak plate rank, 1st inoculation 72 h: 5c
[1]; 100 ppm
  Dilution plate count, 3rd inoculation 72 h: 5.6 × 10^6 cfu/mL
  Streak plate rank, 3rd inoculation 24 h: 5c
  Streak plate rank, 2nd inoculation 72 h: 5c
  Streak plate rank, 1st inoculation 24 h: 5c
  Streak plate rank, 1st inoculation 72 h: 5c
[2]; 25 ppm
  Dilution plate count, 3rd inoculation 72 h: 1.0 × 10^1 cfu/mL
  Streak plate rank, 3rd inoculation 24 h: 2 (2 = 6-15 cfu)
  Streak plate rank, 2nd inoculation 72 h: 0
[2]; 25 ppm, inoculum added was 5%
  Streak plate rank, 1st inoculation 24 h: 4* (4 = 31-45 cfu)
  Streak plate rank, 1st inoculation 72 h: 1* (1 = 1-5 Colony Forming Unit (cfu))
[2]; 50 ppm
  Dilution plate count, 3rd inoculation 72 h: <10 cfu/mL
  Streak plate rank, 3rd inoculation 24 h: 1 (1 = 1-5 Colony Forming Unit (cfu))
  Streak plate rank, 2nd inoculation 72 h: 0
[2]; 50 ppm, inoculum added was 5%
  Streak plate rank, 1st inoculation 24 h: 3* (3 = 16-30 cfu)
  Streak plate rank, 1st inoculation 72 h: 1* (1 = 1-5 Colony Forming Unit (cfu))
[2]; 100 ppm
  Dilution plate count, 3rd inoculation 72 h: <10 cfu/mL
  Streak plate rank, 3rd inoculation 24 h: 1 (1 = 1-5 Colony Forming Unit (cfu))
  Streak plate rank, 2nd inoculation 72 h: 0
[2]; 100 ppm, inoculum added was 5%
  Streak plate rank, 1st inoculation 24 h: 4* (4 = 31-45 cfu)
  Streak plate rank, 1st inoculation 72 h: 1* (1 = 1-5 Colony Forming Unit (cfu))

## O=c1ccc2ccccc2o1 [Coumarin]
[1]; 500 ppm
  Dilution plate count, 3rd inoculation 72 h: 3.5 × 10^6 cfu/mL
  Streak plate rank, 3rd inoculation 24 h: 5c
  Streak plate rank, 2nd inoculation 72 h: 5c
  Streak plate rank, 1st inoculation 24 h: 5c
  Streak plate rank, 1st inoculation 72 h: 5c
[1]; used individually, Table 1
  bactericidal activity (in words): no bactericidal activity
[2]; 500 ppm
  Dilution plate count, 3rd inoculation 72 h: 1.1 × 10^2 cfu/mL
  Streak plate rank, 3rd inoculation 24 h: 4 (4 = 31-45 cfu)
  Streak plate rank, 2nd inoculation 72 h: 2 (2 = 6-15 cfu)
[2]; 500 ppm, inoculum 2%
  Streak plate rank, 1st inoculation 24 h: 3 (3 = 16-30 cfu)
  Streak plate rank, 1st inoculation 72 h: 3 (3 = 16-30 cfu)

## CCCCCCN(CCCCCC)C(=N)N.I [N,N-dihexylguanidine HI]
[1]; in combination with BIT and BBIT, Tables 3 and 5
  effect of guanidine on bactericidal activity of 4-isothiazolin-3-ones (in words): not achieved
[2]; in combination with BIT and BBIT, Tables 4 and 6
  effect of guanidine on fungicidal activity of 4-isothiazolin-3-ones (in words): not achieved
